Laboratory results: publication PMC12040169 (PLOS Biology, 2025)

Assay: in vitro
Settings: human, hela cells, % viability

| Structure (SMILES) | viability at 28.5 h, 10 µM [%] |
| --- | --- |
| Fc1ccc(Sc2ccc(C(F)(F)F)cn2)cc1 [CBK115235] | 106 |
| FC(F)(F)c1ccc(Sc2cccs2)nc1 [CBK115236] | 92.5 |
| Cc1ccccc1Sc1ccc(C(F)(F)F)cn1 [CBK115237] | 112 |
| Nc1cccc(Sc2cccc(C(F)(F)F)n2)c1 [CBK115239] | 99.3 |
| Fc1ccc(Sc2cccc(C(F)(F)F)n2)cc1 [CBK115240] | 97.5 |
| Cc1ccccc1Sc1cccc(C(F)(F)F)n1 [CBK115243] | 103 |
| FC(F)(F)c1ccnc(Sc2cccs2)n1 [CBK115245] | 87.7 |
| COc1ccc(Sc2nccnc2NC(C)C)cc1OC [CBK115249] | 87.4 |
| COCc1nnc(Sc2nc3ccccc3nc2NC(C)C)s1 [CBK115253] | 96.5 |
| c1ccc2nc(N3CCCC3)c(Sc3nc[nH]n3)nc2c1 [CBK115265] | 90.9 |
| CC(C)Nc1nccnc1OC1CCNC1 (stereo not drawn) [CBK115279] | 92.5 |
| CC(C)Nc1nc2cc(Cl)c(Cl)cc2nc1OCCCN(C)C [CBK115282] | 93.1 |
| c1cnc(N2CCCC2)c(OC2CCCNC2)n1 (stereo not drawn) [CBK115283] | 90.2 |
| CCOC(=O)Cn1c(C)nc2ccccc21 [CBK115311] | 103 |
| CC1(C(F)(F)F)OC(NC2C3CC4CC(C3)CC2C4)=NC1=O (stereo not drawn) [CBK115312] | 114 |
| O=c1c([N+](=O)[O-])c(O)c2ccccc2n1-c1ccccc1 [CBK115316] | 97.5 |
| COc1ccccc1-n1c(C)c(C(C)=O)c2cc(O)ccc21 [CBK115320] | 86.3 |
| COC(=O)c1nn(-c2ccccc2)c2cc([N+](=O)[O-])ccc12 [CBK115321] | 99.3 |
| Cc1cc(O)c(C(C)C)cc1N1C(=O)c2ccc([N+](=O)[O-])cc2C1=O [CBK115323] | 97.7 |
| Cn1c(CNc2ccccc2[N+](=O)[O-])c(C#N)c2ccccc21 [CBK115324] | 98.1 |
| Cc1ccc(-n2c(C)c([N+](=O)[O-])c3ccc(O)c(CN(C)C)c32)cc1 [CBK115328] | 88.8 |
| Cc1cc(O)nc2sc(C(=O)c3ccccc3)c(N)c12 [CBK115334] | 87.9 |
| Cc1cc(C)c2c(N)c(C(=O)C(C)(C)C)sc2n1 [CBK115341] | 81.3 |
| Cc1ccc2c(N)c(C(=O)Nc3ccc(C#N)cc3)sc2n1 [CBK115348] | 91.3 |
| COc1ccc2c(c1)/C(=C/c1cnc[nH]1)C(=O)N2 [CBK115354] | 72.5 |

| Structure (SMILES) | viability at 28.5 h, 10 µM [%] |
| --- | --- |
| CC(C)NC(=O)/C(=C/c1c[nH]c2ncccc12)c1ccccc1 [CBK115357] | 95.8 |
| CCN(CC)C(=O)c1sc2nc(-c3cccs3)nc(C)c2c1N [CBK115366] | 100 |
| CC(=O)c1sc2nc(-c3ccccc3)nc(C)c2c1N [CBK115368] | 90.5 |
| Cc1ccc2c(N)c(C(=O)c3cccs3)sc2n1 [CBK115369] | 92.5 |
| COc1ccc(Cn2c(C)nc3c([N+](=O)[O-])c(C)c(C)cc32)cc1 [CBK115370] | 102 |
| CCOC(=O)c1sc2nccc(N(C)C)c2c1-n1cccc1 [CBK115381] | 93.4 |
| COC(=O)c1ccccc1N1C(=O)c2cccc([N+](=O)[O-])c2C1=O [CBK115382] | 95.7 |
| O=C1Nc2ccccc2/C1=C/c1c[nH]cn1 [CBK115386] | 92.8 |
| COC[C@H]1CCCN1C(=O)Cn1[nH]c(C)c(Cc2c(Cl)cccc2Cl)c1=O [CBK115407] | 103 |
| COc1ccc2c(c1)nc1n2CCC1O (stereo not drawn) [CBK115449] | 96.9 |
| COc1cccc(CN2CCCN(c3nccc(OCC4COc5ccccc5O4)n3)CC2)c1OC (stereo not drawn) [CBK115476T] | 108 |
| CC1(c2[nH]nc(N)c2Cc2c(Cl)cccc2Cl)CC1 [CBK115483T] | 92.3 |
| Cc1[nH]c(=O)[nH]c(=S)c1C(=O)NCc1ccc(Cl)cc1 [CBK115489] | 106 |
| Cc1[nH]c(=O)[nH]c(=S)c1C(=O)NCc1cccc(Cl)c1C [CBK115493] | 94.6 |
| Cc1[nH]c(=O)[nH]c(=S)c1C(=O)Nc1ccc(Cl)cc1C#N [CBK115502] | 91 |
| Cc1[nH]c(=O)[nH]c(=S)c1C(=O)Nc1ccc(C(F)(F)F)cc1 [CBK115510] | 96.2 |
| Nc1ncc(-c2ccccc2O)nc1-c1ccc(O)cc1 [CBK115548] | 78.5 |
| Cc1ccc(C(=O)c2coc3ccc(O)cc23)cc1 [CBK115557] | 89.1 |
| O=C(O)CSc1ccc(Cl)cc1 [CBK115571] | 88.4 |
| O=[N+]([O-])c1cccnc1Sc1ccccc1C1=NCCCN1 [CBK115579C] | 96.2 |
| NCCCOc1cncc(N2CCCC2)n1 [CBK115603] | 96.8 |
| Nc1ncc(-c2ccsc2)nc1-c1ccc(O)cc1 [CBK115631] | 100 |
| O=C1N=C(NC2C3CC4CC(C3)CC2C4)OC12CCN(CCC(F)(F)F)CC2 (stereo not drawn) [CBK115640] | 91.4 |
| CC(C)Nc1nccnc1OCc1ccc(F)cc1 [CBK115644] | 113 |
| CC(C)Nc1nccnc1OCc1ccsc1 [CBK115646] | 103 |

| Structure (SMILES) | viability at 28.5 h, 10 µM [%] |
| --- | --- |
| CC(C)Nc1cc(OCc2ccc(F)cc2)ncn1 [CBK115654] | 103 |
| CC(C)Nc1cc(OCc2ccc(-c3ccccc3)cc2)ncn1 [CBK115658] | 103 |
| CC(C)Nc1nc2ccccc2nc1OCc1ccsc1 [CBK115660] | 104 |
| Clc1ccc(OCCOc2cncc(N3CCCC3)n2)cc1 [CBK115668] | 87.4 |
| c1ccc(NCCOc2cncc(N3CCCC3)n2)cc1 [CBK115670] | 101 |
| Cc1cc(O)ccc1-c1cncc(-c2ccc(O)cc2C)n1 [CBK115689] | 90.5 |
| O=C(NCCN1CCOCC1)c1ccc(Nc2cncc(-c3ccc(O)cc3)n2)cc1 [CBK115692] | 77.1 |
| CCOC(=O)N1CCC(NC(=O)c2ccc(Nc3cncc(-c4ccc(O)cc4)n3)cc2)CC1 [CBK115694] | 107 |
| CCCc1n[nH]c(C2CC2)c1C(=O)OCC [CBK115714] | 115 |
| CCCc1n[nH]c(C2CCCC2)c1C(=O)OCC [CBK115727] | 85.1 |
| CC(C)Nc1nc2ccccc2nc1OCCC#N [CBK115735] | 103 |
| Cc1ncsc1CCOc1nc2ccccc2nc1NC(C)C [CBK115736] | 102 |
| COCCCOc1nc2ccccc2nc1NC(C)C [CBK115737] | 99.3 |
| CC(C)Nc1nc2cc(Cl)c(Cl)cc2nc1OCc1cccnc1 [CBK115743] | 97.4 |
| Cc1ncsc1CCOc1nccnc1N1CCCC1 [CBK115752] | 86.5 |
| Oc1cccc(OCCOc2nccnc2N2CCCC2)c1 [CBK115756] | 85.5 |
| COCCCOc1cncc(N2CCCC2)n1 [CBK115759] | 92.4 |
| c1cncc(COc2nc3ccccc3nc2N2CCCC2)c1 [CBK115762] | 93.4 |
| N#CCCOc1nc2ccccc2nc1N1CCCC1 [CBK115763] | 96.2 |
| Cc1cc(COc2nc3ccccc3nc2N2CCCC2)no1 [CBK115768] | 109 |
| c1ccc2nc(N3CCCC3)c(OC3CCOC3)nc2c1 (stereo not drawn) [CBK115769] | 99.4 |
| CSCCOc1nc2ccccc2nc1N1CCCC1 [CBK115770] | 91.3 |
| COCCCOc1nc2cc(Cl)c(Cl)cc2nc1N1CCCC1 [CBK115773] | 95.9 |
| Oc1cccc(OCCOc2nc3cc(Cl)c(Cl)cc3nc2N2CCCC2)c1 [CBK115778] | 100 |
| Cc1ncsc1CCOc1ncccc1C(F)(F)F [CBK115781] | 92.2 |

| Structure (SMILES) | viability at 28.5 h, 10 µM [%] |
| --- | --- |
| Cc1cc(COc2ncccc2C(F)(F)F)no1 [CBK115783] | 101 |
| FC(F)(F)c1ccnc(OCc2cccnc2)c1 [CBK115784] | 99.6 |
| Cc1cc(COc2cc(C(F)(F)F)ccn2)no1 [CBK115787] | 134 |
| Oc1cccc(OCCOc2cc(C(F)(F)F)ccn2)c1 [CBK115788] | 84.8 |
| FC(F)(F)c1ccc(OCCCc2ccncc2)nc1 [CBK115791] | 101 |
| Cc1cc(COc2ccc(C(F)(F)F)cn2)no1 [CBK115792] | 91.7 |
| Cc1ncsc1CCOc1cccc(C(F)(F)F)n1 [CBK115794] | 117 |
| Cc1ncsc1CCOc1nccc(C(F)(F)F)n1 [CBK115798] | 80.3 |
| FC(F)(F)c1ccnc(OCCCc2ccncc2)n1 [CBK115799] | 97.5 |
| COCCCOc1nc2ccccc2nc1C(F)(F)F [CBK115803] | 101 |
| FC(F)(F)c1cccnc1OCCNc1ccccc1 [CBK115822] | 98.7 |
| FC(F)(F)c1ccc(OCc2ccc(-c3ccccc3)cc2)nc1 [CBK115830] | 94.6 |
| FC(F)(F)c1ccc(OCc2ccc(Cl)c(Cl)c2)nc1 [CBK115831] | 90.2 |
| O=C1NC2(CCN(C(=O)Cc3ccc(F)cc3)CC2)Oc2ccc(-c3ccccc3)cc21 [CBK115832] | 93.5 |
| FC(F)(F)c1cccc(OCCOc2ccccc2)n1 [CBK115835] | 87.7 |
| FC(F)(F)c1ccnc(OCCOc2ccc(Cl)cc2)n1 [CBK115838] | 90.8 |
| FC(F)(F)c1ccnc(OCCNc2ccccc2)n1 [CBK115839] | 90.8 |
| FC(F)(F)c1nc2ccccc2nc1OCCc1c[nH]c2ccccc12 [CBK115843] | 93.2 |
| O=C1NC2(CCN(C(=O)Cc3c(F)ccc(F)c3F)CC2)Oc2ccc(-c3ccoc3)cc21 [CBK115848] | 83.2 |
| COc1cccc(NC(=O)N2CCC3(CC2)NC(=O)c2cc(-c4ccoc4)ccc2O3)c1 [CBK115855] | 102 |
| COc1ccc2[nH]cc(CCNC(=O)c3ccc(Cl)c(Cl)c3)c2c1 [CBK115870] | 107 |
| Cc1cc(NC(=O)C2COc3ccccc3O2)c2ccccc2n1 (stereo not drawn) [CBK115871] | 91.6 |
| CC(C)Nc1nccnc1OCCOc1cccc(O)c1 [CBK115878] | 101 |
| CC(C)Nc1cncc(OCc2cccnc2)n1 [CBK115879] | 102 |
